Literature values as cited in US20090131498A1, “Enantioselective Synthesis of Merrilactone and Its Analogs” (priority 2005, published 2009).

System: neurite growth
Conditions: described by Fukuyama et al. (ref. 3)

Which “activity in a neurite growth assay” value does the source give for C[C@@]12COC(=O)[C@]1(C)C1O[C@]3(C)[C@@H](O)C[C@]24OC(=O)C[C@]143 (stereo partly shown) [merrilactone A, Merrilactone A] here?
Its value is “promising activity”.
